In ChEMBL document CHEMBL4342401, “Cathepsin B: Active site mapping with peptidic substrates and inhibitors” (Bioorg Med Chem, 2019):
*1 amine or outer side, *2 acyl side, *3 side chain or, on linkers, in order; H or OH if unused. Where a SMILES comes first, the peptide text is derived from it. [ ]: non-standard residue; d: D form. The star is where a group is joined. X1 = CC(C)C[C@H](N[*:1])C(=O)NC(=O)[C@H]1O[C@@H]1C(=O)[*:2]; N(6-aminohexyl)Gly = O=C(CN(CCCCCCN[*:3])[*:1])[*:2]; Biotin = O=C1N[C@H]2[C@H](CS[C@H]2CCCCC(=O)*)N1

What was measured:
[1] = biological target: T1, Cathepsin B (Homo sapiens, UniProt P07858); test: Inhibition of human cathepsin B assessed as ratio of Kinact to Ki using Z-Phe-Arg-NH-Mec as substrate incubated for 15 to 90 mins by fluorometric method
[2] = biological target: T1, Cathepsin B; test: Inhibition of human liver cathepsin B using Z-Phe-Arg-AMC as substrate incubated for 30 mins by fluorescence based assay
[3] = biological target: T1, Cathepsin B; test: Inhibition of recombinant human cathepsin B expressed in baculovirus expression system using Z-Arg-Arg-AMC as substrate incubated for 20 mins by fluorescence based assay
[4] = biological target: Cathepsin B (Bos taurus) (UniProt P07688); test: Inhibition of bovine spleen cathepsin B assessed as ratio of Kinact to Ki by spectrophotometeric method
[5] = biological target: T1, Cathepsin B; test: Inhibition of human liver cathepsin B using Z-Arg-Arg-AMC as substrate preincubated for 15 mins followed by substrate addition and measured after 30 mins by fluorometric method
[6] = biological target: T1, Cathepsin B; test: Inhibition of cathepsin B (unknown origin) assessed as reduction in 7-amino-4-methylcoumarin formation using Z-Arg-Arg-MCA as substrate preincubated for 3 mins followed by substrate addition and measured after 10 mins by fluorescence spectrometric method
[7] = biological target: Cathepsin B (Bos taurus) (UniProt P07688); test: Inhibition of bovine cathepsin B assessed as ratio of Kinact to Ki using Z-Phe-Arg-pNA as substrate by UV/Vis spectrophotometric method

CCCNC(=O)[C@H]1O[C@@H]1C(=O)N[C@@H](CC(C)C)C(=O)N1CCC[C@H]1C(=O)O
Ratio [1]: 152000 M⁻¹ s⁻¹

CCOC(=O)[C@@H]1O[C@H]1C(=O)N[C@@H](CC(C)C)C(=O)N1CCC[C@H]1C(=O)O
Ratio [1]: 567000 M⁻¹ s⁻¹

CC(C)C[C@H](NC(=O)CNC(=O)CNCCCCCCNC(=O)CCCC[C@@H]1SC[C@@H]2NC(=O)N[C@@H]21)C(=O)NC(=O)[C@H]1O[C@@H]1C(=O)N[C@@H](CC(C)C)C(=O)N1CCC[C@H]1C(=O)O (H-[N(6-aminohexyl)Gly](Biotin)G[X1]LP-OH)
Ratio [1]: 1.6e+06 M⁻¹ s⁻¹

CC(C)CC(NC(=O)c1cccc(-c2ccncc2)c1)C(=O)N(C)N(C)C#N (racemic)
Ki [2]: 5 nM

Cc1cccc(C[C@H](NC(=O)c2ccccc2)C(=O)N[C@H](C#N)COCc2cccc(C(=O)O)c2)c1
IC50 [3]: < 10 nM

CCCNC(=O)[C@@H]1O[C@H]1C(=O)N[C@@H](CC(C)C)C(=O)N1CCC[C@H]1C(=O)O
Ratio [1]: 29400 M⁻¹ s⁻¹

CCOC(=O)[C@H]1O[C@@H]1C(=O)N[C@@H](CC(C)C)C(=O)N1CCC[C@H]1C(=O)O
Ratio [1]: 44400 M⁻¹ s⁻¹

CC(C)CCNC(=O)[C@H](Cc1ccccc1)NC(=O)[C@H]1O[C@@H]1C(=O)O
Ratio [4]: 12300 M⁻¹ s⁻¹

CCCCC(=O)N[C@@H](Cc1cccc(C)c1)C(=O)N[C@H](C#N)COCc1cccc(C(=O)O)c1
IC50 [3]: < 10 nM

CC(C)CC(NC(=O)c1ccc(Br)cc1)C(=O)N(C)N(C)C#N (racemic)
Ki [2]: 2 nM

CC(C)CC(NC(=O)c1ccc(-c2ccc(-c3ccccc3)cc2)cc1)C(=O)N(C)N(C)C#N (racemic)
Ki [2]: 0.69 nM

CC(C)CCNC(=O)[C@H](Cc1cc(I)c(O)c(I)c1)NC(=O)[C@H]1O[C@@H]1C(=O)O
Ratio [4]: 105000 M⁻¹ s⁻¹

CN1CCN(C(=O)N[C@@H](Cc2ccccc2)C(=O)N[C@H](/C=C/S(=O)(=O)c2ccccc2)c2ccc(-c3ccccc3)cc2)CC1
IC50 [5]: 300 nM

COC(=O)CNC(=O)CNC(=O)[C@H](CC(C)C)NC(=O)[C@H]1O[C@@H]1C(=O)N[C@@H](CC(C)C)C(=O)N1CCC[C@H]1C(=O)O
Ratio [1]: 1.52e+06 M⁻¹ s⁻¹

CCOC(=O)[C@H]1O[C@@H]1C(=O)N[C@H](C(=O)N1CCC[C@H]1C(=O)O)[C@@H](C)CC
IC50 [6]: 2.28 nM

CC(=O)N[C@@H](Cc1ccccc1)C(=O)NCC(=O)COC(=O)[C@H](CC(C)C)NC(=O)OCc1ccccc1
Ratio [7]: 2700 M⁻¹ s⁻¹

CC(=O)N[C@@H](Cc1ccccc1)C(=O)NCC(=O)COC(=O)[C@@H](CC(C)C)NC(=O)OCc1ccccc1
Ratio [7]: 300 M⁻¹ s⁻¹

Cc1cccc(C[C@H](NC(=O)c2ccc(Cl)cc2F)C(=O)N[C@H](C#N)COCc2cccc(C(=O)O)c2)c1
IC50 [3]: < 10 nM
